Laboratory results as given in ChEMBL document CHEMBL5120841, “Discovery of novel pleuromutilin derivatives as potent antibacterial agents” (2022).
≈ marks a conversion by molar mass, not a printed value. Calls of active or inactive are those of the source. No cut-off for these calls is given here.

What was measured:
Type in all cases: functional
Escherichia coli = assay: Antibacterial activity against Escherichia coli CICC 10389 assessed as bacterial growth inhibition incubated for 18 to 24 hrs by microtiter dilution method; conditions: time 18-24 hrs
Enterococcus faecalis = assay: Antibacterial activity against Enterococcus faecalis assessed as bacterial growth inhibition incubated for 18 to 24 hrs by microtiter dilution method; conditions: time 18-24 hrs
[1] = test system: Staphylococcus epidermidis; assay: Antibacterial activity against methicillin-resistant Staphylococcus epidermidis ATCC 51625 assessed as bacterial growth inhibition incubated for 18 to 24 hrs by microtiter dilution method; conditions: time 18-24 hrs
Staphylococcus aureus [2] = assay: Antibacterial activity against methicillin-resistant Staphylococcus aureus BNCC 337371 assessed as bacterial growth inhibition incubated for 18 to 24 hrs by microtiter dilution method; conditions: time 18-24 hrs
Bacillus subtilis = assay: Antibacterial activity against Bacillus subtilis assessed as bacterial growth inhibition incubated for 18 to 24 hrs by microtiter dilution method; conditions: time 18-24 hrs
Staphylococcus aureus [3] = assay: Antibacterial activity against Staphylococcus aureus ATCC 25923 assessed as bacterial growth inhibition incubated for 18 to 24 hrs by microtiter dilution method; conditions: time 18-24 hrs
Staphylococcus aureus [4] = assay: Antibacterial activity against Staphylococcus aureus ATCC 25923 assessed as reduction on bacterial count at 6X MIC incubated for 24 hrs by time killing assay
Staphylococcus aureus [5] = assay: Antibacterial activity against methicillin-resistant Staphylococcus aureus BNCC 337371 assessed as reduction on bacterial count at 6X MIC incubated for 24 hrs by time killing assay

| SMILES | MIC (Escherichia coli) | MIC (Enterococcus faecalis) | MIC [1] | MIC (Staphylococcus aureus [2]) | MIC (Bacillus subtilis) | MIC (Staphylococcus aureus [3]) | Activity (Staphylococcus aureus [4]) | Activity (Staphylococcus aureus [5]) |
| --- | --- | --- | --- | --- | --- | --- | --- | --- |
| C=C[C@]1(C)C[C@@H](OC(=O)CSC2=NC(CC)=C(C(=O)OC)C(C)N2)[C@]2(C)[C@H](C)CC[C@]3(CCC(=O)[C@H]32)[C@@H](C)[C@@H]1O (stereo partly drawn) | > 16 µg/mL | > 16 µg/mL | 0.125 µg/mL (≈ 0.217 µM) | 0.25 µg/mL (≈ 0.435 µM) | 8 µg/mL (≈ 13.9 µM) | 0.5 µg/mL (≈ 0.87 µM) | – | – |
| C=C[C@]1(C)C[C@@H](OC(=O)CS[C@@H]2C[C@H]3CC[C@@H](C2)N3C)[C@]2(C)[C@H](C)CC[C@]3(CCC(=O)[C@H]32)[C@@H](C)[C@@H]1O [RETAPAMULIN] | > 16 µg/mL | > 16 µg/mL | 0.125 µg/mL (≈ 0.241 µM) | 0.125 µg/mL (≈ 0.241 µM) | 8 µg/mL (≈ 15.5 µM) | 0.25 µg/mL (≈ 0.483 µM) | 2.25 log10CFU/ml | 3.3 log10CFU/ml |
| C=C[C@]1(C)C[C@@H](OC(=O)CSc2nc(C)c(C(=O)OC(C)CC)c(C)n2)[C@]2(C)[C@H](C)CC[C@]3(CCC(=O)[C@H]32)[C@@H](C)[C@@H]1O (stereo partly drawn) | > 16 µg/mL | > 16 µg/mL | 0.5 µg/mL (≈ 0.832 µM) | 0.5 µg/mL (≈ 0.832 µM) | > 16 µg/mL | 0.5 µg/mL (≈ 0.832 µM) | – | – |
| C=C[C@]1(C)C[C@@H](OC(=O)CSC2=NC(C)=C(C(C)=O)C(C)N2)[C@]2(C)[C@H](C)CC[C@]3(CCC(=O)[C@H]32)[C@@H](C)[C@@H]1O (stereo partly drawn) | > 16 µg/mL | > 16 µg/mL | 0.25 µg/mL (≈ 0.459 µM) | 0.25 µg/mL (≈ 0.459 µM) | > 16 µg/mL | 0.125 µg/mL (≈ 0.229 µM) | – | – |
| C=C[C@]1(C)C[C@@H](OC(=O)CSC2=NC(C)=C(C(=O)OC(C)CC)C(C)N2)[C@]2(C)[C@H](C)CC[C@]3(CCC(=O)[C@H]32)[C@@H](C)[C@@H]1O (stereo partly drawn) | > 16 µg/mL | > 16 µg/mL | 1 µg/mL (≈ 1.66 µM) | 0.5 µg/mL (≈ 0.829 µM) | > 16 µg/mL | 0.5 µg/mL (≈ 0.829 µM) | – | – |
| C=C[C@]1(C)C[C@@H](OC(=O)CSC2=NC(C)=C(C(=O)OC)C(C)N2)[C@]2(C)[C@H](C)CC[C@]3(CCC(=O)[C@H]32)[C@@H](C)[C@@H]1O (stereo partly drawn) | > 16 µg/mL | > 16 µg/mL | 0.125 µg/mL (≈ 0.223 µM) | 0.25 µg/mL (≈ 0.446 µM) | 8 µg/mL (≈ 14.3 µM) | 0.25 µg/mL (≈ 0.446 µM) | – | – |
| C=CCOC(=O)C1=C(C)N=C(SCC(=O)O[C@@H]2C[C@@](C)(C=C)[C@@H](O)[C@H](C)[C@]34CCC(=O)[C@H]3[C@@]2(C)[C@H](C)CC4)NC1C (stereo partly drawn) | > 16 µg/mL | > 16 µg/mL | 0.5 µg/mL (≈ 0.852 µM) | 0.25 µg/mL (≈ 0.426 µM) | > 16 µg/mL | 0.25 µg/mL (≈ 0.426 µM) | – | – |
| C=C[C@]1(C)C[C@@H](OC(=O)CSC2=NC(C(CC)CC)=C(C(=O)OC)C(C)N2)[C@]2(C)[C@H](C)CC[C@]3(CCC(=O)[C@H]32)[C@@H](C)[C@@H]1O (stereo partly drawn) | > 16 µg/mL | > 16 µg/mL | 0.25 µg/mL (≈ 0.405 µM) | 0.25 µg/mL (≈ 0.405 µM) | > 16 µg/mL | 0.5 µg/mL (≈ 0.811 µM) | – | – |
| C=C[C@]1(C)C[C@@H](OC(=O)CSC2=NC(CCCC)=C(C(=O)OC)C(C)N2)[C@]2(C)[C@H](C)CC[C@]3(CCC(=O)[C@H]32)[C@@H](C)[C@@H]1O (stereo partly drawn) | > 16 µg/mL | > 16 µg/mL | 1 µg/mL (≈ 1.66 µM) | 1 µg/mL (≈ 1.66 µM) | > 16 µg/mL | 1 µg/mL (≈ 1.66 µM) | – | – |
| C=C[C@]1(C)C[C@@H](OC(=O)CSc2nc(C)c(C(=O)OC)c(CCC)n2)[C@]2(C)[C@H](C)CC[C@]3(CCC(=O)[C@H]32)[C@@H](C)[C@@H]1O | > 16 µg/mL | > 16 µg/mL | 0.0625 µg/mL (≈ 0.107 µM) | 0.125 µg/mL (≈ 0.213 µM) | 16 µg/mL (≈ 27.3 µM) | 0.25 µg/mL (≈ 0.426 µM) | – | – |
| C=C[C@]1(C)C[C@@H](OC(=O)CSc2nc(C)c(C(=O)OC)c(C)n2)[C@]2(C)[C@H](C)CC[C@]3(CCC(=O)[C@H]32)[C@@H](C)[C@@H]1O | > 16 µg/mL | > 16 µg/mL | 0.0313 µg/mL (≈ 0.056 µM) | ≤ 0.0156 µg/mL | 2 µg/mL (≈ 3.58 µM) | ≤ 0.0156 µg/mL | Active | Active |
| C=C[C@]1(C)C[C@@H](OC(=O)CSc2nc(C)c(C(C)=O)c(C)n2)[C@]2(C)[C@H](C)CC[C@]3(CCC(=O)[C@H]32)[C@@H](C)[C@@H]1O | > 16 µg/mL | > 16 µg/mL | 0.0313 µg/mL (≈ 0.0577 µM) | ≤ 0.0156 µg/mL | 1 µg/mL (≈ 1.84 µM) | ≤ 0.0156 µg/mL | Active | Active |
